Among the test systems are NCI/ADR-RES ovarian; TK-10 renal; T-47D breast; UACC-62 melanoma; MDA-N; SR leukemia; OVCAR-5 ovarian; KM12 colon; SNB-19 CNS; K-562 leukemia.
What all share (experiment): growth of human tumour cells (NCI), 48 h

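Values below derive from 48-hour exposures of cells grown in 96-well plates, with endpoints linearly interpolated between the two concentrations bracketing the appropriate inhibition level. TGI denotes the concentration required for complete inhibition of growth.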 Where a SMILES comes first, the peptide text is derived from it. [ ]: non-standard residue; d: D form. The star is where a group is joined. ξ: configuration not given here. X28 = COC1=CC(=O)N(C(=O)[C@@H](O*)C(C)C)[C@H]1Cc1ccccc1; X37 = O=C(OCc1ccccc1)[C@@H]1CCC[C@H]1N*; Fmoc = O=C(OCC1c2ccccc2-c2ccccc21)*; ξW = NC(Cc1c[nH]c2ccccc12)C(=O)O; NMeL = CN[C@@H](CC(C)C)C(=O)O; ξF = NC(Cc1ccccc1)C(=O)O; Hexanoyl = CCCCCC(=O)*; Boc = CC(C)(C)OC(=O)*; ξK = NCCCCC(N)C(=O)O; ξT = CC(O)C(N)C(=O)O; tBu = CC(C)(C)* A value given as a limit tells only on which side of the number the result lay.

`CCOc1ccc(N=NC2C(=O)N(C(=O)CC(=O)Nc3ccc(Cl)cc3)N=C2C)cc1` (centres undefined): the TGI in the assay with NCI/ADR-RES ovarian, in the assay on TK-10 renal, with T-47D breast, in the assay on UACC-62 melanoma, in the assay with MDA-N and in the assay on SR leukemia was more than 100 µM in each case. Also, the TGI in the assay on OVCAR-5 ovarian and with KM12 colon was more than 100 µM in each case.

On to `COc1ccc(N(C(=O)OC(C)(C)C)[C@@H]2C(C)=C[C@H]([S@@](=O)c3ccc(C)cc3)[C@@H]3C(=O)N(C)C(=O)[C@@H]32)cc1`, for which the TGI is 52.1 µM in the assay with NCI/ADR-RES ovarian; 43.4 µM in the assay on TK-10 renal; 99.8 µM with T-47D breast; 48.4 µM in the assay with UACC-62 melanoma; 40.8 µM in the assay with MDA-N; 51.5 µM in the assay with SNB-19 CNS. The TGI in the assay on OVCAR-5 ovarian is 43.1 µM; with K-562 leukemia, more than 100 µM; with KM12 colon, 30.5 µM.

On to `CC(OC(C)(C)C)C(NC(=O)C(CCCCNC(=O)OC(C)(C)C)NC(=O)C(Cc1c[nH]c2ccccc12)NC(=O)C(Cc1ccccc1)NC(=O)OCC1c2ccccc2-c2ccccc21)C(=O)NC(Cc1ccccc1)C(=O)N[C@@H]1CCC[C@H]1C(=O)OCc1ccccc1` (some centres undefined) (Fmoc-[ξF][ξW][ξK](Boc)[ξT](tBu)[ξF]-X37), for which the TGI in the assay on NCI/ADR-RES ovarian, in the assay on TK-10 renal, in the assay on T-47D breast, in the assay on UACC-62 melanoma, with MDA-N and with SR leukemia was more than 100 µM each time. Also, the TGI with OVCAR-5 ovarian, in the assay on K-562 leukemia and in the assay with KM12 colon was more than 100 µM each time.

For the molecule `COC(=O)C1Cc2c([nH]c3ccccc23)-c2[nH]c3ccccc3c2CC(NC(C)=O)C(=O)NCC(=O)N1` (centres undefined), the TGI with NCI/ADR-RES ovarian, in the assay with TK-10 renal, in the assay with T-47D breast, in the assay with UACC-62 melanoma, in the assay with MDA-N and in the assay on SNB-19 CNS was more than 100 µM each time. Also, the TGI with OVCAR-5 ovarian, in the assay on K-562 leukemia and in the assay with KM12 colon was more than 100 µM each time.

Take `CC(=O)NC1C(OCC(=O)NC(C)C(=O)NC(CCC(=O)NCCCCCNc2ccc([N+](=O)[O-])c3[nH]c4ccccc4c(=O)c23)C(N)=O)C(O)C(CO)OC1(C)OCc1ccccc1` (centres undefined): the TGI in the assay with NCI/ADR-RES ovarian, in the assay on TK-10 renal, in the assay on T-47D breast, in the assay with UACC-62 melanoma, with MDA-N and in the assay with SNB-19 CNS was more than 50 µM in each case. The TGI with OVCAR-5 ovarian, in the assay with K-562 leukemia and in the assay with KM12 colon was more than 50 µM each time.

With `CCC1=C(C)C2=NC1=CC1=NC(=C(CC)/C1=C/O)C=C1N=C3C(=C1C)C(=O)C(C(=O)OC)C3=C1NC(=C2)C(C)C1CCC(=O)OC` (centres undefined), the TGI in the assay on TK-10 renal, in the assay with T-47D breast, in the assay on UACC-62 melanoma, with MDA-N, in the assay with SR leukemia and in the assay on SNB-19 CNS was more than 100 µM in each case. The TGI in the assay on OVCAR-5 ovarian, in the assay with K-562 leukemia and with KM12 colon was more than 100 µM throughout.

As to `CCCCCC(=O)N[C@H](C(=O)N[C@H](C(=O)N(C)[C@@H](CC(C)C)C(=O)N1CCC[C@H]1C(=O)N1CCC[C@H]1C(=O)O[C@H](C(=O)N1C(=O)C=C(OC)[C@@H]1Cc1ccccc1)C(C)C)C(C)C)C(C)C` (Hexanoyl-VV[NMeL]PP-X28), the TGI was more than 100 µM with NCI/ADR-RES ovarian; more than 100 µM with TK-10 renal; more than 100 µM with T-47D breast; more than 100 µM in the assay on UACC-62 melanoma; more than 100 µM in the assay with MDA-N; more than 42.1 µM in the assay on SNB-19 CNS. For the same molecule, the TGI in the assay with OVCAR-5 ovarian, in the assay on K-562 leukemia and with KM12 colon was more than 100 µM throughout.

As to `CC(C)=NN/C(=N\S(=O)(=O)c1cc(Cl)c(Oc2ccc([N+](=O)[O-])cc2Cl)c(Cl)c1)Nc1ccc(Cl)cc1`, the TGI with NCI/ADR-RES ovarian, in the assay with TK-10 renal, in the assay with T-47D breast, in the assay with UACC-62 melanoma, with MDA-N and with SNB-19 CNS was more than 100 µM throughout. Moreover, the TGI with OVCAR-5 ovarian, in the assay on K-562 leukemia and in the assay on KM12 colon was more than 100 µM throughout.

`COc1cccc(-n2nnc3c(N)nc(N)nc32)c1`: the TGI in the assay with NCI/ADR-RES ovarian, in the assay on TK-10 renal, in the assay with T-47D breast, with UACC-62 melanoma, with MDA-N and in the assay on SNB-19 CNS was more than 100 µM throughout. For the same molecule, the TGI with OVCAR-5 ovarian, in the assay with K-562 leukemia and in the assay on KM12 colon was more than 100 µM each time.

Take `COc1ccc(N=NN2CCCC2)cc1`: the TGI was more than 100 µM with TK-10 renal; 49.2 µM with T-47D breast; more than 100 µM in the assay on UACC-62 melanoma; 39.8 µM with MDA-N; more than 100 µM in the assay on SR leukemia; more than 100 µM with SNB-19 CNS. Also, the TGI in the assay on OVCAR-5 ovarian was more than 100 µM; in the assay on K-562 leukemia, more than 100 µM; in the assay with KM12 colon, 14.7 µM.

These data come from PubChem BioAssay (NCI).
